Test results from US12448388B2, “PRMT5 inhibitors and uses thereof” (Gilead Sciences, Inc., priority 2023, dated 2025).
Read-outs that look alike come from different tables or passages of the source.

Tests used:
[1] = test system: HCT116 MTAP-deleted cell lines; assay: Cell viability assay (CellTiter-Glo, 7 days), HCT116 MTAP-deleted; format: cell-based; settings: Homo sapiens, HCT-116
Procedure, shortened: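 Each PRMT5 inhibitor was tested as a dose response alongside tool compounds on the same plate. Incubation ran 7 days at 37 °C under 5% CO2, after which CellTiter-Glo luminescence was recorded and CC50 calculated.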

[2] = test system: Symmetric Di-methyl Arginine (SDMA) signal (PRMT5 inhibition) in HCT116 MTAP-deleted cells; assay: Symmetric di-methyl arginine image-based high content screen assay (SDMA assay), HCT116 MTAP-deleted; format: cell-based; settings: for EC50 selectivity: HCT116 WT versus HCT116 MTAP-deleted; for EC50: Homo sapiens, HCT-116, HCT116 MTAP-deleted, class symbols
Description: Symmetric di-methyl arginine image-based high content screen assay (SDMA assay) was performed in HCT116 WT and HCT116 MTAP-deleted cell lines to measure Symmetric Di-methyl Arginine (SDMA) signal reduction after selective PRMT5 inhibition in the MTAP-deleted cells. Control compounds were analyzed in parallel each time for quality control.
Briefly, the same compound plates were generated as mentioned in the previous section of Cell viability assay on Day −1. On Day 0, 800 HCT WT or HCT116 MTAP-deleted cell were seeded in compound-containing 384 well plates (50 μl per well) in RPMI 1640 media supplemented with 10% heat inactivated fetal bovine serum, Glutamax and penicillin streptomycin using EL460 liquid dispenser 5 μl cassette (BioTek, part no. 7170011). After equilibrating the plate at room temperature, the cells were incubated for 3 days inside the sealed incubator set at 37° C. with 90% humidity and 5% C02.
On Day 3, the cells were fixed by adding 45 μl of 8% neutralized formalin solution to each well using EL460 liquid dispenser 5 μl cassette and the cells were incubated for 30 minutes at room temperature. The formalin solution was washed off with […] phosphate buffered saline (dPBS), the 0.1% Triton X-100 solution in dPBS was used to permeabilize the cells for 15 minutes at room temperature. The triton solution was aspirated, 50 μl of Odyssey Blocking buffer +0.05% Tween20 was added and the plate was incubated at room temperature for 30 minutes.
The blocking solution was removed, a 20 μl of SDMA antibody (Cell Signaling Technology, Cat no. 13222) diluted 1:500 in Odyssey Blocking buffer +0.05% Tween20 was added and the plate was incubated at 4° C. overnight. Next day, the primary SDME antibody solution was washed from each well three times with 0.05% Tween20 in dPBS (PBST).
A 30 μl of the secondary antibody, a Goat anti-Rabbit Alexa Fluor Plus 488 (Invitrogen, Cat no. PIA32731) was diluted 1:500 in Odyssey Blocking buffer +0.05% Tween20 and the plate was incubated for 1.5 hours in dark at room temperature. The secondary antibody solution was removed, 30 μl of 5 mg/ml DAPI solution diluted 1:2000 in dPBS was added and the plate was incubated for 30 minutes in dark at room temperature. The DAPI solution was aspirated and the wells were washed six times with dPBS.
The SDMA signal and DAPI signal per cell were counted using a Cellomics CX7 LZR instrument reading under 488 and 405 nm laser, respectively. The SDMA signal was quantified by mean average intensity per cell from Alexa Fluor Plus 488 after the cell was defined with DAPI. The EC50 values for each compound after 3 days of treatment were calculated using 4 parameter non-linear logistical curve fit.
For the SDMA assay i.e. EC50 shown in Table 3A: A: EC50≤1 nM, B: 1 nM<EC50≤5 nM, C: EC50>5 nM.

[3] = cell viability, HCT116 MTAP-deleted, class symbols, read-out: CC50

| Structure (SMILES) | EC50 selectivity [2] | EC50 [2] [nM] | CC50 [1, 3] [nM] | CC50 [1] [nM] |
| --- | --- | --- | --- | --- |
| Nc1nc2ccc(C(=O)N(Cc3ccc(C(F)(F)F)cn3)N3CCOCC3)cc2n2cncc12 [Fb-2, 4-amino-N-morpholino-N-((5-(trifluoromethyl)pyridin-2-yl)methyl)imidazo[1,5-a]quinoxaline-8-carboxamide] | 48 | 1 to 5 | < 100 |  |
| Cc1ncc2c(N)nc3ccc(C(=O)N(Cc4ccc(C(F)(F)F)cc4F)N(C)C(=O)C4CC4)cc3n12 [Fb-4, 4-amino-N′-(cyclopropanecarbonyl)-N-(2-fluoro-4-(trifluoromethyl)benzyl)-N′,1-dimethylimidazo[1,5-a]quinoxaline-8-carbohydrazide] | 249 | 1 to 5 | 100 to 1000 |  |
| CC(=O)N(C)N(Cc1nc2cc(Cl)ccc2s1)C(=O)c1ccc2nc(N)c3cncn3c2c1 [Fb-5, N′-acetyl-4-amino-N-((5-chlorobenzo[d]thiazol-2-yl)methyl)-N′-methylimidazo[1,5-a]quinoxaline-8-carbohydrazide] | 320 | > 5 | 100 to 1000 |  |
| CC(=O)N(C)N(Cc1nc2cc(Cl)ccc2s1)C(=O)c1ccc2nc(N)c3cnc(C)n3c2c1 [Fb-6, N′-acetyl-4-amino-N-((5-chlorobenzo[d]thiazol-2-yl)methyl)-N′,1-dimethylimidazo[1,5-a]quinoxaline-8-carbohydrazide] | 390 | > 5 | 100 to 1000 |  |
| Cc1ncc2c(N)nc3ccc(C(=O)N(Cc4ccc(C(F)(F)F)cn4)N4CCCC4=O)cc3n12 [Fc-1, 4-amino-1-methyl-N-(2-oxopyrrolidin-1-yl)-N-[[5-(trifluoromethyl)-2-pyridyl]methyl]imid-azo[1,5-a]quinoxaline-8-carboxamide] | 171 | 1 to 5 | 100 to 1000 |  |
| CC(=O)N(C)N(Cc1ccc(OC(F)F)cc1F)C(=O)c1ccc2nc(N)c3cnc(C)n3c2c1 [Fc-2, N′-acetyl-4-amino-N-(4-(difluoromethoxy)-2-fluorobenzyl)-N′,1-dimethylimidazo[1,5-a]quinoxaline-8-carbohydrazide] | 431 | 1 to 5 | 100 to 1000 |  |
| Nc1nc2ccc(C(=O)N(Cc3ccc(C(F)(F)F)cn3)N3CCCC3=O)cc2n2cncc12 [Fd-1, 4-amino-N-(2-oxopyrrolidin-1-yl)-N-((5-(trifluoromethyl)pyridin-2-yl)methyl)imidazo[1,5-a]quinoxaline-8-carboxamide] | 54 | 1 to 5 | 100 to 1000 |  |
| Nc1nc2ccc(C(=O)N(Cc3ccc(C(F)(F)F)cn3)C34CC(C3)C4)cc2n2cncc12 [Fe-1, 4-amino-N-(bicyclo[1.1.1]pentan-1-yl)-N-((5-(trifluoromethyl)pyridin-2-yl)methyl)imidazo[1,5-a]quinoxaline-8-carboxamide] | 62 | 1 to 5 | < 100 |  |
| Nc1nc2cc(F)c(C(=O)N3CCC(c4ccc(C(F)(F)F)cc4F)C3)cc2n2cncc12 (stereo not drawn) [Ff-4, (4-amino-7-fluoroimidazo[1,5-a]quinoxalin-8-yl)(3-(2-fluoro-4-(trifluoromethyl)phenyl)pyrrolidin-1-yl)methanone] | 2956 | > 5 | 100 to 1000 |  |
| CN(Cc1cccc2ccoc12)C(=O)c1ccc2nc(N)c3cncn3c2c1 [Ff-5, 4-amino-N-(benzofuran-7-ylmethyl)-N-methylimidazo[1,5-a]quinoxaline-8-carboxamide] | 334 | > 5 | > 1000 |  |
| Nc1nc2cc(F)c(C(=O)N(Cc3ccc(Cl)cc3F)C34CC(C3)C4)cc2n2cncc12 [Ff-6, 4-amino-N-(bicyclo[1.1.1]pentan-1-yl)-N-(4-chloro-2-fluorobenzyl)-7-fluoroimidazo[1,5-a]quinoxaline-8-carboxamide] | 71 | > 5 | 100 to 1000 |  |
| CN(C(=O)c1cc2c(cc1Cl)nc(N)c1cncn12)[C@@H]1COc2cc(C(F)(F)F)ccc21 [Ff-10, (S)-4-amino-7-chloro-N-methyl-N-(6-(trifluoromethyl)-2,3-dihydrobenzofuran-3-yl)imidazo[1,5-a]quinoxaline-8-carboxamide] | 88 | ≤ 1 |  | < 100 |
| CN(C(=O)c1ccc2nc(N)c3cncn3c2c1)[C@@H]1COc2cc(C(F)(F)F)ccc21 [Ff-11, (S)-4-amino-N-methyl-N-(6-(trifluoromethyl)-2,3-dihydrobenzofuran-3-yl)imidazo[1,5-a]quinoxaline-8-carboxamide] | 352 | ≤ 1 | < 100 |  |
| CN(C(=O)c1cc2c(cc1F)nc(N)c1cncn12)[C@@H]1COc2cc(C(F)(F)F)ccc21 [Ff-12, (S)-4-amino-7-fluoro-N-methyl-N-(6-(trifluoromethyl)-2,3-dihydrobenzofuran-3-yl)imidazo[1,5-a]quinoxaline-8-carboxamide] | 196 | ≤ 1 | < 100 |  |

Continued, in another order:

| EC50 selectivity [2] | EC50 [2] [nM] | Structure (SMILES) | CC50 [1, 3] [nM] | CC50 [1] [nM] |
| --- | --- | --- | --- | --- |
| 32 | ≤ 1 | CN(C(=O)C1CC1)N(Cc1ccc(C(F)(F)F)cc1F)C(=O)c1cc2c(cc1F)nc(N)c1cncn12 [Fb-3, 4-amino-N′-(cyclopropanecarbonyl)-7-fluoro-N-(2-fluoro-4-(trifluoromethyl)benzyl)-N′-methylimidazo[1,5-a]quinoxaline-8-carbohydrazide] | < 100 |  |
| 224 | ≤ 1 | CN(C(=O)c1cc2c(cc1F)nc(N)c1cncn12)[C@@H](c1ccc(C(F)(F)F)cc1F)C(F)F [Fb-8, (S)-4-amino-N-(2,2-difluoro-1-(2-fluoro-4-(trifluoromethyl)phenyl)ethyl)-7-fluoro-N-methylimidazo[1,5-a]quinoxaline-8-carboxamide] | < 100 |  |
| 5 | ≤ 1 | C[C@H](c1ncccn1)N(Cc1ccc(C(F)(F)F)cn1)C(=O)c1ccc2nc(N)c3cncn3c2c1 [Fe-2, (R)-4-amino-N-(1-(pyrimidin-2-yl)ethyl)-N-((5-(trifluoromethyl)pyridin-2-yl)methyl)imidazo[1,5-a]quinoxaline-8-carboxamide] | < 100 |  |
| 37 | ≤ 1 | Nc1nc2cc(F)c(C(=O)N(Cc3ccc(C(F)(F)F)cn3)C34CC(C3)C4)cc2n2cncc12 [Ff-1, 4-amino-N-(bicyclo[1.1.1]pentan-1-yl)-7-fluoro-N-((5-(trifluoromethyl)pyridin-2-yl)methyl)imidazo[1,5-a]quinoxaline-8-carboxamide] | < 100 |  |
| 33 | ≤ 1 | CC(C)N(Cc1ccc(C(F)(F)F)cn1)C(=O)c1cc2c(cc1F)nc(N)c1cncn12 [Ff-7, 4-amino-7-fluoro-N-isopropyl-N-((5-(trifluoromethyl)pyridin-2-yl)methyl)imidazo[1,5-a]quinoxaline-8-carboxamide] | < 100 |  |
| 299 | ≤ 1 | CCN(C(=O)c1ccc2nc(N)c3cncn3c2c1)[C@@H]1COc2cc(C(F)(F)F)ccc21 [Ff-8, (S)-4-amino-N-ethyl-N-(6-(trifluoromethyl)-2,3-dihydrobenzofuran-3-yl)imidazo[1,5-a]quinoxaline-8-carboxamide] | < 100 |  |
| 106 | ≤ 1 | CCN(C(=O)c1cc2c(cc1F)nc(N)c1cncn12)[C@@H]1COc2cc(C(F)(F)F)ccc21 [Ff-9, (S)-4-amino-N-ethyl-7-fluoro-N-(6-(trifluoromethyl)-2,3-dihydrobenzofuran-3-yl)imidazo[1,5-a]quinoxaline-8-carboxamide] | < 100 |  |
